Measured values published in patent publication US20070010565A1, “New thiazolidinones without basic nitrogen, their production and use as pharmaceutical agents” (priority 2005, published 2007).

Tests used:
[1] = biological target: T1, Recombinant human Plk-1 (6×His) (Homo sapiens, UniProt P53350); assay: PLK enzyme assay; assay type: biochemical; conditions: biotinylated casein and 33P-γ-ATP substrate, 90 minutes at room temperature, SPA beads; read-out: PLK-1 IC50 [nM] Inhibition
T1 construct: 6xHis; made in house; host or cells: baculovirus-infected insect cells (Hi5)
T1 sequence (P53350 whole entry): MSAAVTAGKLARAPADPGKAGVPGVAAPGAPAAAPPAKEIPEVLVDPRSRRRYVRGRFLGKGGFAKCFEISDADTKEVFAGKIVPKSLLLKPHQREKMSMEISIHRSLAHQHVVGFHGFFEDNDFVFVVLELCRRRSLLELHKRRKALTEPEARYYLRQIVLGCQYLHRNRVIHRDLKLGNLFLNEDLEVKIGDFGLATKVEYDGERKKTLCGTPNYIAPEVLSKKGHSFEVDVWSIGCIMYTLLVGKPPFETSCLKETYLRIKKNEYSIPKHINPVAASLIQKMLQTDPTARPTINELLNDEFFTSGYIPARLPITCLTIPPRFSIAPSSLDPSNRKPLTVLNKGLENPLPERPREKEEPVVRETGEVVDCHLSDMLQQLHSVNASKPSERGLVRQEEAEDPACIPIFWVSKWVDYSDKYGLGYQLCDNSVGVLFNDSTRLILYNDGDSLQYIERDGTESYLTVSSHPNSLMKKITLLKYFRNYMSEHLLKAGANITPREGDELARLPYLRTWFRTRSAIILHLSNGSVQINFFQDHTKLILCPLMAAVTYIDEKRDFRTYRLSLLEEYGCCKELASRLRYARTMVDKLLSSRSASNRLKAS
Procedure: Recombinant human Plk-1 (6×His) was purified from baculovirus-infected insect cells (Hi5).
10 ng of (produced in a recombinant manner and purified) PLK enzyme is incubated for 90 minutes at room temperature with biotinylated casein and 33P-γ-ATP as a substrate in a volume of 15 μl in 384-well Greiner small-volume microtiter plates (final concentrations in the buffer: 660 ng/ml of PLK; 0.7 μmol of casein, 0.5 μmol of ATP incl. 400 nCi/ml of 33P-γ-ATP; 10 mmol of MgCl2, 1 mmol of MnCI2; 0.01% NP40; 1 mmol of DTT, protease inhibitors; 0.1 mmol of Na2VO3 in 50 mmol of HEPES, pH 7.5). To complete the reaction, 5 μl of stop solution (500 μmol of ATP; 500 mmol of EDTA; 1% Triton X100; 100 mg/ml of streptavidin-coated SPA beads in PBS) is added. After the microtiter plate is sealed by film, the beads are sedimented by centrifuging (10 minutes, 1500 rpm). The incorporation of 33P-γ-ATP in casein is intended as a measurement of enzyme activity by β-counting.
Test substances are used in various concentrations (0 μmol, as well as in the range of 0.01-30 μmol). The final concentration of the solvent dimethyl sulfoxide is 1.5% in all batches.

[2] = system: human MaTu breast tumour cells; assay: Proliferation assay (crystal violet); assay type: cell-based; conditions: 96 h, 4 days incubation, read-out: Inhibition of the Tumour Cell Proliferation (MaTu) IC50
Procedure: Cultivated human MaTu breast tumour cells were flattened out at a density of 5000 cells/measuring point in a 96-well multititer plate in 200 μl of the corresponding growth medium. After 24 hours, the cells of one plate (zero-point plate) were colored with crystal violet (see below), while the medium of the other plates was replaced by fresh culture medium (200 μl), to which the test substances were added at various concentrations (0 μm, as well as in the range of 0.01-30 μm; the final concentration of the solvent dimethyl sulfoxide was 0.5%). The cells were incubated for 4 days in the presence of test substances. The cell proliferation was determined by coloring the cells with crystal violet: the cells were fixed by adding 20 μl/measuring point of an 11% glutaric aldehyde solution for 15 minutes at room temperature. After three washing cycles of the fixed cells with water, the plates were dried at room temperature. The cells were colored by adding 100 μl/measuring point of a 0.1% crystal violet solution (pH was set at 3 by adding acetic acid). […] The extinction was determined by photometry at a wavelength of 595 nm. The change of cell growth, in percent, was calculated by standardization of the measured values to the extinction values of the zero-point plate (=0%) and the extinction of the untreated (0 μm) cells (=100%).

| IC50 [1] | IC50 [2] | SMILES |
| --- | --- | --- |
| 230 nM |  | CCNC(=O)/C(C#N)=c1\sc(=Cc2ccc(O)cc2)c(=O)n1CC [Example 3] |
| 39 nM | 3200 nM | C#CCNC(=O)/C(C#N)=c1\sc(=Cc2ccc(O)cc2)c(=O)n1CC [Example 8] |
| 23 nM |  | C#CCNC(=O)/C(C#N)=c1\sc(=Cc2ccc(N3CCCC3)cc2)c(=O)n1CC [Example 10] |
